From US7378413B2, “2-amino-3-(alkyl)-pyrimidone derivatives” (Sanofi Aventis, priority 2000, dated 2008) come the findings set out here.

The structures appear in SMILES notation.

`Cc1ccc(CCNc2nc(-c3ccncc3)cc(=O)n2C)cc1` [Compound 16, 2-[[2-(4-methylphenyl)ethyl]amino]-3-methyl-6-pyridin-4-ylpyrimidin-4(3H)-one] had a melting point of 184.7 to 185 °C.
To `Cn1c(NCCc2cccc(Cl)c2)nc(-c2ccncc2)cc1=O` [Compound 18, 2-[[2-(3-chlorophenyl)ethyl]amino]-3-methyl-6-pyridin-4-ylpyrimidin-4(3H)-one] belongs 162.8 to 163 °C; to `Cn1c(NCCc2cccs2)nc(-c2ccncc2)cc1=O` [Compound 19, 2-[[2-(thiophen-2-yl)ethyl]amino]-3-methyl-6-pyridin-4-ylpyrimidin-4(3H)-one], 171.7 to 171.9 °C; to `Cn1c(NCCc2ccc(OCc3ccccc3)cc2)nc(-c2ccncc2)cc1=O` [Compound 21, 2-[[2-(4-phenylmethoxyphenyl)ethyl]amino]-3-methyl-6-pyridin-4-ylpyrimidin-4(3H)-one], 169.7 to 169.8 °C.
As for `Cn1c(NCCc2ccc(-c3ccccc3)cc2)nc(-c2ccncc2)cc1=O` [Compound 22, 2-[[2-(4-phenylphenyl)ethyl]amino]-3-methyl-6-pyridin-4-ylpyrimidin-4(3H)-one], the melting point was 175.4 to 175.6 °C.
In the case of `O=c1cc(-c2ccncc2)nc(NCCCc2ccccc2)n1Cc1ccccc1` [Compound 28, 2-[[3-(phenyl)propyl]amino]-3-phenylmethyl-6-pyridin-4-ylpyrimidin-4(3H)-one], the melting point is 218 to 221 °C.
To `COc1ccc2[nH]cc(CCNc3nc(-c4ccncc4)cc(=O)n3C)c2c1` [Compound 30, 2-[[2-(5-methoxy-1H-indol-3-yl)ethyl]amino]-3-methyl-6-pyridin-4-ylpyrimidin-4(3H)-one] belongs 242.7 to 243 °C.
For `Cn1c(NCCc2c[nH]c3ccc(OCc4ccccc4)cc23)nc(-c2ccncc2)cc1=O` [Compound 31, 2-[[2-(5-phenylmethoxy-1H-indol-3-yl)ethyl]amino]-3-methyl-6-pyridin-4-ylpyrimidin-4(3H)-one], the melting point was 168.4 to 168.6 °C.
To `Cc1cccc2c(CCNc3nc(-c4ccncc4)cc(=O)n3C)c[nH]c12` [Compound 32, 2-[[2-(7-methyl-1H-indol-3-yl)ethyl]amino]-3-methyl-6-pyridin-4-ylpyrimidin-4 (3H)-one] belongs 217.2 to 217.3 °C.
`Cn1c(NC2Cc3ccccc3C2)nc(-c2ccncc2)cc1=O` [Compound 37, 2-[(indan-2-yl)amino]-3-methyl-6-pyridin-4-ylpyrimidin-4(3H)-one] showed a melting point of 211.5 to 211.8 °C.
Take `Cn1c(NC2CCCCC2)nc(-c2ccncc2)cc1=O` [Compound 46, 2-Cyclohexylamino-3-methyl-6-pyridin-4-yl-3H-pyrimidin-4-one]: the melting point was 268 to 270 °C.
To `CCCCNc1nc(-c2ccncc2)cc(=O)n1C` [Compound 47, 2-Butylamino-3-methyl-6-pyridin-4-yl-3H-pyrimidin-4-one] belongs 180 to 182 °C; to `CCCCCNc1nc(-c2ccncc2)cc(=O)n1C` [Compound 48, 3-Methyl-2-pentylamino-6-pyridin-4-yl-3H-pyrimidin-4-one], 157 to 159 °C.
With `CCCCCCNc1nc(-c2ccncc2)cc(=O)n1C` [Compound 49, 2-Hexylamino-3-methyl-6-pyridin-4-yl-3H-pyrimidin-4-one], the melting point lay within 133 to 135 °C.
To `CCCCCCCNc1nc(-c2ccncc2)cc(=O)n1C` [Compound 50, 2-Heptylamino-3-methyl-6-pyridin-4-yl-3H-pyrimidin-4-one] belongs 121 to 123 °C; to `CCCCCCCCCNc1nc(-c2ccncc2)cc(=O)n1C` [Compound 52, 3-Methyl-2-nonylamino-6-pyridin-4-yl-3H-pyrimidin-4-one], 113 to 115 °C.
Under `CC(C)CCNc1nc(-c2ccncc2)cc(=O)n1C` [Compound 55, 3-Methyl-2-(3-methyl-butylamino)-6-pyridin-4-yl-3H-pyrimidin-4-one] stands 213 to 217 °C; under `Cn1c(NCC2CCCCC2)nc(-c2ccncc2)cc1=O` [Compound 56, 2-(Cyclohexylmethyl-amino)-3-methyl-6-pyridin-4-yl-3H-pyrimidin-4-one], 218 to 220 °C.
Turning to `CCCOCCNc1nc(-c2ccncc2)cc(=O)n1C` [Compound 57, 3-Methyl-2-(2-propoxy-ethylamino)-6-pyridin-4-yl-3H-pyrimidin-4-one], the melting point is 147 to 150 °C.
Under `Cn1c(NCCCC2CCCCC2)nc(-c2ccncc2)cc1=O` [Compound 58, 2-(3-Cyclohexyl-propylamino)-3-methyl-6-pyridin-4-yl-3H-pyrimidin-4-one] stands 177 to 180 °C; under `CCOCCCNc1nc(-c2ccncc2)cc(=O)n1C` [Compound 59, 2-(3-Ethoxy-propylamino)-3-methyl-6-pyridin-4-yl-3H-pyrimidin-4-one], 118 to 120 °C.
`Cn1c(NCCCCCO)nc(-c2ccncc2)cc1=O` [Compound 61, 2-(5-Hydroxy-pentylamino)-3-methyl-6-pyridin-4-yl-3H-pyrimidin-4-one] yielded a melting point of 164 to 165 °C.
To `Cn1c(NCCCCO)nc(-c2ccncc2)cc1=O` [Compound 62, 2-(4-Hydroxy-butylamino)-3-methyl-6-pyridin-4-yl-3H-pyrimidin-4-one] belongs 159 to 161 °C; to `CC(C)OCCCNc1nc(-c2ccncc2)cc(=O)n1C` [Compound 63, 2-(3-Isopropoxy-propylamino)-3-methyl-6-pyridin-4-yl-3H-pyrimidin-4-one], 95 to 98 °C.
In turn, `CCCOCCCNc1nc(-c2ccncc2)cc(=O)n1C` [Compound 64, 3-Methyl-2-(3-propoxy-propylamino)-6-pyridin-4-yl-3H-pyrimidin-4-one] gave a melting point of 107 to 109 °C.
Under `Cn1c(NCCC2CCCC2)nc(-c2ccncc2)cc1=O` [Compound 66, 2-(2-Cyclopentyl-ethylamino)-3-methyl-6-pyridin-4-yl-3H-pyrimidin-4-one] stands 190 to 194 °C.
To `Cn1c(NCCCN2CCCCC2)nc(-c2ccncc2)cc1=O` [Compound 67, 3-Methyl-2-(3-piperidin-1-yl-propylamino)-6-pyridin-4-yl-3H-pyrimidin-4-one] belongs 162 to 163 °C.
Under `CC(=O)OC(CNc1nc(-c2ccncc2)cc(=O)n1C)c1ccccc1` (centres unmarked) [Compound 69, Acetic acid 2-(1-methyl-6-oxo-4-pyridin-4-yl-1 ,6-dihydro-pyrimidin-2-ylamino)-1-phenyl-ethyl ester] stands 81 to 84 °C; under `Cn1c(NCCC23CC4CC(CC(C4)C2)C3)nc(-c2ccncc2)cc1=O` [Compound 70, 2-(2-Adamantan-1-yl-ethylamino)-3-methyl-6-pyridin-4-yl-3H-pyrimidin-4-one], 107 to 111 °C.
`Cn1c(NCc2cccc(OCCCO)c2)nc(-c2ccncc2)cc1=O` [Compound 71, 2-[3-(3-Hydroxy-propoxy)-benzylamino]-3-methyl-6-pyridin-4-yl-3H-pyrimidin-4-one] registered a melting point of 98 to 101 °C.
To `CC(=O)OCCCOc1cccc(CNc2nc(-c3ccncc3)cc(=O)n2C)c1` [Compound 73, Acetic acid 3-{3-[(1-methyl-6-oxo-4-pyridin-4-yl-1 ,6-dihydro-pyrimidin-2-ylamino)-methyl]-phenoxy}-propyl ester] belongs 198 to 201 °C; to `CN(C)CCCOc1cccc(CNc2nc(-c3ccncc3)cc(=O)n2C)c1` [Compound 74, 2-[3-(3-Dimethylamino-propoxy)-benzylamino]-3-methyl-6-pyridin-4-yl-3H-pyrimidin-4-one], 80 to 82 °C; to `Cn1c(NCCCc2ccccc2)nc(-c2ccncc2)cc1=O` [Compound 78, 3-Methyl-2-(3-phenyl-propylamino)-6-pyridin-4-yl-3H-pyrimidin-4-one], 122 to 124 °C.
`O=c1cc(-c2ccncc2)nc(NCCCc2ccccc2)n1CCO` [Compound 86, 3-(2-Hydroxy-ethyl)-2-(3-phenyl-propylamino)-6-pyridin-4-yl-3H-pyrimidin-4-one]: the melting point was 143 to 145 °C.
Take `Cn1c(NCCSc2ccccc2)nc(-c2ccncc2)cc1=O` [Compound 92, 3-Methyl-2-(2-phenylsulfanyl-ethylamino)-6-pyridin-4-yl-3H-pyrimidin-4-one]: the melting point fell in the range of 162 to 168 °C.
Under `Cn1c(NCCNc2ccccc2)nc(-c2ccncc2)cc1=O` [Compound 93, 3-Methyl-2-(2-phenylamino-ethylamino)-6-pyridin-4-yl-3H-pyrimidin-4-one] stands 102 to 105 °C; under `Cn1c(NCCOc2ccccc2)nc(-c2ccncc2)cc1=O` [Compound 94, 3-Methyl-2-(2-phenoxy-ethylamino)-6-pyridin-4-yl-3H-pyrimidin-4-one], 193 to 194 °C.
Under `Cn1c(NCCc2ccccn2)nc(-c2ccncc2)cc1=O` [Compound 97, 3-Methyl-6-pyridin-4-yl-2(2-pyridin-2-yl-ethylamino)-3H-pyrimidin-4-one] stands 154 to 156 °C (dec.).

The term melting point denotes the temperature, or range, at which the solid turns liquid.
